# From patent publication US20220370322A1, “UV BLOCKING COMPOSITION COMPRISING RED ALGAE-DERIVED FLORIDOSIDE AND AMINE GROUP-CONTAINING COMPOUND” (ATHENA CO., LTD., priority 2019, published 2022)
# Several values for one entry are separate records, joined by “and”; a condition that tells them apart may be missing. Equal entries are not always repeated.
# What was measured:
# Raw 264.7 cells = experiment: Cytotoxicity test (Cell Counting Kit-8); format: cell-based; settings: for Viability (%): 24 hours, CCK-8; for Absorbance AVERAGE: absorbance at 450 nm, mean of three; for Absorbance: single replicates, measured at 450 nm
# Experimental: A cytotoxicity test was performed on the sample, which had been identified to be floridoside, by using the Cell Counting Kit-8 kit (DOJINDO, CK04-05).
# Raw 264.7 cells were cultured at 1×10^4 cells/well in a DMEM medium containing 10% FBS in a 96-well plate at 37° C. in 5% CO2 incubator for 24 hours, and then treated with a drug. After the cells were cultured at 37° C. in the 5% CO2 incubator for 24 hours, CCK-8 solution was added, followed by incubation at 37° C. for 2 hours, and then the absorbance was measured at 450 nm.
# skin = experiment: Primary patch test for human body application (skin irritation, ICDRG criteria); format: in vivo; set-up: key to Mean score of the skin reaction: mean of ICDRG-graded reactions via skin reaction formula; settings: 31 subjects
# Experimental: A primary patch test for human body application was performed on the sample.
# Subjects of the test were determined for skin irritation by a dermatologist a total of 4 times (the date of a patch, the date of removal of the patch, and 24 hours and 120 hours after removal of the patch) during the test period.
# The skin patch test was performed using the Van der Bend chamber (Van der Bend, Brielle, the Netherlands). For each of 31 subjects, the sample was applied between the shoulder blade and the waist line on the basis of the spin on the back by using the Van der Bend chamber.
# A site of the test was washed with distilled water and dried, and then the sample was dissolved in 10% distilled water. Thereafter, 35 μl was dropped in the Van der Bend chamber, which was then put and fixed on the site of the test. The sample was patched on the skin for 48 hours, and after the removal of the patch, the site of the test was marked with a marking pen, and the site of the test was observed after 30 minutes, 24 hours, and 120 hours.
# With respect to the skin reaction, the degrees of irritation were classified according to the evaluation criteria of the International Contact Dermatitis Research Group (ICDRG) as shown in Table 2 below.
# The mean score of the skin reaction was calculated by the skin reaction calculation formula, and then the presence or absence of irritation was determined according to the decision table of the skin patch test.
smiles,measurement,setting,value
"OCC(CO)O[C@H]1O[C@H](CO)[C@H](O)[C@H](O)[C@H]1O [Floridoside, 2-O-α-D-galactopyranosylglycerol]",Viability (%),"Raw 264.7 cells; 1 ppm, Raw 264.7 cells",83%
same,Absorbance AVERAGE,Raw 264.7 cells; 1 ppm,2.594
same,Absorbance,Raw 264.7 cells; 1 ppm,2.73 and 2.59 and 2.47
same,Viability (%),"Raw 264.7 cells; 10 ppm, Raw 264.7 cells",88%
same,Absorbance AVERAGE,Raw 264.7 cells; 10 ppm,2.746
same,Absorbance,Raw 264.7 cells; 10 ppm,2.69 and 2.73 and 2.81
same,Viability (%),"Raw 264.7 cells; 100 ppm, Raw 264.7 cells",88%
same,Absorbance AVERAGE,Raw 264.7 cells; 100 ppm,2.759
same,Absorbance,Raw 264.7 cells; 100 ppm,2.68 and 2.79 and 2.81
same,Viability (%),"Raw 264.7 cells; 500 ppm, Raw 264.7 cells",89%
same,Absorbance AVERAGE,Raw 264.7 cells; 500 ppm,2.790
same,Absorbance,Raw 264.7 cells; 500 ppm,2.72 and 2.8 and 2.85
same,Viability (%),"Raw 264.7 cells; 1000 ppm, Raw 264.7 cells",89%
same,Absorbance AVERAGE,Raw 264.7 cells; 1000 ppm,2.781
same,Absorbance,Raw 264.7 cells; 1000 ppm,2.75 and 2.77 and 2.82
same,Cell protective effect,"Raw 264.7 cells; Raw 264.7 cells, 1-1000 ppm, conclusion in words",excellent cell protective effect
same,Determination (skin patch test),skin; decision table of the skin patch test,No irritation
same,Mean score of the skin reaction,skin; skin reaction calculation formula,0.00
same,"Degree of reaction + (first line), number of subjects",skin; After 30 minutes,0
same,"Degree of reaction + (second line), number of subjects",skin; After 30 minutes,0
same,"Degree of reaction +++, number of subjects",skin; After 30 minutes,0
same,"Degree of reaction ++, number of subjects",skin; After 30 minutes,0
same,"Degree of reaction + (first line), number of subjects",skin; After 24 hours,0
same,"Degree of reaction + (second line), number of subjects",skin; After 24 hours,0
same,"Degree of reaction +++, number of subjects",skin; After 24 hours,0
same,"Degree of reaction ++, number of subjects",skin; After 24 hours,0
same,"Degree of reaction + (first line), number of subjects",skin; After 120 hours,0
same,"Degree of reaction + (second line), number of subjects",skin; After 120 hours,0
same,"Degree of reaction +++, number of subjects",skin; After 120 hours,0
same,"Degree of reaction ++, number of subjects",skin; After 120 hours,0
